The values that follow come from patent US20210186879A1, “TARGETED DELIVERY OF HYDROPHILIC DRUGS TO LUNG” (DOUBLE BOND PHARMACEUTICALS AB, priority 2016, published 2021).

The Solubility is the concentration that dissolves in the medium under given conditions.

A short description of data set [1]: In vivo distribution of doxorubicin in lung and femoral muscle of Californian rabbits. Conditions: 4 hours; for Femoral muscle DOX / Lung tissue DOX: 1.25 mg/kg i.v. marginal ear vein, ± SD; for Femoral muscle Relative difference / Lung tissue Relative difference: relative to control CI-DOX (1). The procedure: (§1) For in vivo investigation both rats and rabbits were used: female Wistar rats 60-75 days old weighing 300 g±30 g and Californian breed male rabbits 75-90 days old weighing 2000 g±250 g were selected. […] Different doxorubicin containing formulations with a total doxorubicin dose 5 mg/kg were administered via a single bolus injection into the tail for rats and via a slow flow of 1 ml/min in the marginal ear vein for rabbits.
(§2) Five or six pieces of lung tissue of a total weight of about 1 g were taken from different parts of a lung. The samples were homogenized with a solution of aqueous ethanol containing HCl for 20 s at 7000 rpm and for 10 s at 11000 rpm. […] Doxorubicin and doxycycline (DOC) concentration in the final supernatant was determined with fluorometric analysis and high-performance liquid chromatography respectively.
Suspension of complexes of doxorubicin and doxorubicin hydrochloride were administered via a slow flow of 1 ml/min to rabbits in the marginal ear vein with a total doxorubicin dose 1.25 mg/kg. Animals were sacrificed after 4 hours after administration. Concentration of doxorubicin in lung and femoral muscle was determined in accordance to the procedure described above. As it is seen from table 8 the concentration of doxorubicin in femoral muscle as a representation of a system concentration is not increased for complexes compared with doxorubicin hydrochloride.

A short description of data set [2]: In vivo distribution of doxorubicin in lung and blood serum of Wistar rats. The conditions noted are these: 4 hours; for Blood serum DOX / Lung tissue DOX: 5 mg/kg i.v. single bolus, ± SD; for Blood serum Relative difference / Lung tissue Relative difference: relative to control CI-DOX (1). The procedure:
as §1, §2
An aqueous solution of doxorubicin hydrochloride, an aqueous suspension of doxorubicin alkane sulfate and an aqueous suspension of doxorubicin alkyl sulfonate were administered via a single bolus injection into the tail Animals were sacrificed after 4 hours after administered via a single bolus injection into the tail; total doxorubicin dose 5 mg/kg. […] The results are summarized in Table 7 and illustrated in FIG. 10.

Data set [3] is described as follows: Solubility in aqueous ethanol (UV method). The conditions noted are these: for Solubility in 30% ethanol: doxorubicin salts. Format: physicochemical. As to the method: The mixture was centrifuged at 3000 rpm for 10 min and the supernatant filtered through a 0.2 micrometer filter to remove aggregates of undissolved solid product. The solubility of the compound was determined by a UV method. Particle size analysis was accomplished by laser diffraction method.

The conditions of data set [4]: rat, in vivo, iv, 5 mg/kg.
The conditions of data set [5]: cited from earlier work.

A value given as a limit tells only on which side of the number the result lay.

In the case of `CCCCCCCCCCCCCCCCS(=O)(=O)O.COc1cccc2c1C(=O)c1c(O)c3c(c(O)c1C2=O)CC(O)(C(=O)CO)CC3OC1CC(N)C(O)C(C)O1` (centres unmarked) [doxorubicin CnH2n+1SO3^− n=16], in data set [1], the “Femoral muscle DOX” value amounted to 0.12 ± 0.06 µg/kg, the “Lung tissue DOX” value came out at 10.70 ± 0.77 µg/kg, the “Femoral muscle Relative difference” value stood at 0.52 and the “Lung tissue Relative difference” value was 12.89. In data set [2], the “Blood serum DOX” value turned out to be 0.019 ± 0.007 µg/kg, the “Lung tissue DOX” value is 6.11 ± 0.75 µg/kg, the “Blood serum Relative difference” value came to 1.04 and the “Lung tissue Relative difference” value is on record as 8.61. For the same compound, in data set [3] (doxorubicin alkyl sulfates and alkane sulfonates, 30% ethanol (v/v)), the Solubility is on record as 0.01194 mg/mL. Also, the “Solubility in 30% ethanol” value in data set [3] (Table 7) amounted to 0.012. For the same compound, the “Solubility in 30% ethanol” value in data set [3] (Table 8) was found to be 0.0119.

Regarding `CCCCCCCCCCCCOS(=O)(=O)O.COc1cccc2c1C(=O)c1c(O)c3c(c(O)c1C2=O)C[C@@](O)(C(=O)CO)C[C@@H]3O[C@H]1C[C@H](N)[C@H](O)[C@H](C)O1` [doxorubicin CnH2n+1OSO3^− n=12], in data set [1], the “Femoral muscle DOX” value came out at 0.20 ± 0.02 µg/kg and the “Lung tissue DOX” value turned out to be 1.61 ± 0.25 µg/kg. In data set [2], the “Blood serum DOX” value came to 0.021 ± 0.007 µg/kg and the “Lung tissue DOX” value came out at 0.77 ± 0.19 µg/kg.

Take `CCCCCCCCCCCCCCOS(=O)(=O)O.COc1cccc2c1C(=O)c1c(O)c3c(c(O)c1C2=O)CC(O)(C(=O)CO)CC3OC1CC(N)C(O)C(C)O1` (centres unmarked) [doxorubicin CnH2n+1OSO3^− n=14]: in data set [4], the “Particle size particularly advantageous in targeting lung tissue” value was 40-90 μm. For the same compound, in data set [1], the “Femoral muscle DOX” value was 0.06 ± 0.01 µg/kg, the “Lung tissue DOX” value amounted to 6.14 ± 0.53 µg/kg, the “Femoral muscle Relative difference” value is 0.26 and the “Lung tissue Relative difference” value was determined as 7.40. Besides, in data set [2], the “Blood serum DOX” value came to 0.023 ± 0.009 µg/kg, the “Lung tissue DOX” value worked out at 3.17 ± 0.33 µg/kg, the “Blood serum Relative difference” value stood at 1.21 and the “Lung tissue Relative difference” value amounted to 4.46.

As to `CCCCCCCCCCCCS(=O)(=O)O.COc1cccc2c1C(=O)c1c(O)c3c(c(O)c1C2=O)CC(O)(C(=O)CO)CC3OC1CC(N)C(O)C(C)O1` (centres unmarked) [doxorubicin CnH2n+1SO3^− n=12], in data set [2], the “Blood serum DOX” value came out at 0.014 ± 0.003 µg/kg, the “Lung tissue DOX” value amounted to 0.88 ± 0.09 µg/kg, the “Blood serum Relative difference” value amounted to 0.75 and the “Lung tissue Relative difference” value was 1.24.

`COc1cccc2c1C(=O)c1c(O)c3c(c(O)c1C2=O)C[C@@](O)(C(=O)CO)C[C@@H]3O[C@H]1C[C@H](N)[C@H](O)[C@H](C)O1` [doxorubicin]: in data set [5], the “Cumulative dose at which the risk of developing cardiac side effects increases dramatically” value is no less than 550 mg/m^2.
